{"source": "patent US12239686B2", "about": "“Immune checkpoint inhibitor combinations” (LYTIX BIOPHARMA AS, priority 2014, dated 2025)", "key": {"[1]": {"system": "CT26WT colon carcinoma cells", "assay": "Re-challenge with CT26WT cells in mice with complete tumour regression", "format": "in vivo", "experimental": "Methods: Female Balb-c mice (n=4), previously treated with LTX-315, 1 mg) or (n=9); previously treated with LTX-315 0.5 or 1 mg) were re-inoculated (s.c. in the abdominal area) with either murine A20 B cell lymphoma cells or CT26WT colon carcinoma cells (5 million) respectively 6 weeks following initial treatment with LTX-315. Tumour growth was monitored for up to 36 days following re-inoculation."}, "[2]": {"system": "IGROV-1/CDDP", "format": "cell-based, human", "experimental": "(§1) Tumor cells were grown as adherent monolayers or as suspensions at 37° C. in a humidified atmosphere (5% CO2, 95% air). The culture medium was RPMI 1640 containing 2 mM L-glutamine (Lonza, Belgium) and supplemented with 10% fetal bovine serum (FBS, Lonza). For experimental use, the adherent cells were detached from the culture flask by a 5-minute treatment with trypsin-versene (Lonza), diluted in Hanks' medium without calcium or magnesium (Lonza) and neutralized by addition of complete culture medium. Cells were counted in a hemocytometer and their viability was assessed by 0.25% trypan blue exclusion.\n(§2) Tumor cells were plated in 96-well flat-bottom microtitration plates (Nunc, Dutscher, Brumath, France) and incubated at 37° C. for 24 hours before treatment in 190 μl of drug-free culture medium supplemented or not with 10% FBS for adherent or suspension growing cell lines, respectively.\n(§3) The adherent cell lines were washed once with 200 μl FBS-free culture medium before treatment. Tumor cells were incubated for 4 hours with 10 concentrations of compounds in ¼ dilution step with a top dose of 400 μM (range 4×10^−4 to 4×10^−10 M), with 1% (final concentration) Triton X-100 as positive control and FBS-free culture medium as negative control. The cells (190 μl) were incubated in a 200 μl final volume of FBS-free culture medium containing test substances at 37° C. under 5% CO2.\n(§4) Three independent experiments were performed, each concentration being tested in quadruplicate. Control cells were treated with vehicle alone. At the end of treatments, the cytotoxic activity was evaluated by a MTS assay (see § 3.3).\n(§5) Like MTT, MTS is bioreduced by cells into a formazan product that is directly soluble in culture medium without processing, unlike MTT.\n(§6) At the end of the cells treatment, 40 μl of a 0.22 μm filtered freshly combined solution of MTS (20 ml at 2 mg/ml, Ref G1111, Batch 235897, Exp 03/2009, Promega, Charbonnières, France) and PMS (1 ml at 0.92 mg/ml, Ref P9625, Batch 065K0961, Sigma) in Dulbecco's Phosphate Buffered Saline (DPBS, Ref 17-513Q, Batch 6MB0152, Cambrex), were added in each well. Culture plates were incubated for 2 h at 37° C. Absorbency (OD) were measured at 490 nm in each well using VICTOR^3TM 1420 multilabeled counter (Wallac, PerkinElmer, Courtaboeuf, France).\n(§7) [formula] • The OD values are the mean of 4 experimental measurements. • IC50: drug concentration to obtain a 50% inhibition of cell proliferation.\n(§8) The dose-response curves were plotted using XLFit 3 (IDBS, United Kingdom). The IC50 determination values were calculated using the XLFit 3 software from semi-log curves. Individual IC50 determination values as well as mean and SD values were generated.\n(§9) Resistance index was calculated using the following formula: […]\n(§10) Resistance index was calculated for each compound for each couple of sensitive and resistant cell lines. Individual resistance index was calculated when IC50 values of both sensitive and corresponding resistant cell lines were determined within same experiment. In addition, resistance index was also calculated ratio of mean IC50 values obtained during three independent experiments."}, "[3]": {"system": "MCF-7/mdr", "format": "cell-based, human", "experimental": "as §1, §2, §3, §4, §5, §6, §7, §8, §9, §10"}, "[4]": {"system": "A375 cells", "assay": "Release of cytochrome-C, ELISA of supernatant", "format": "cell-based, human", "details": "35 μM; 5, 15, 45 min", "experimental": "A375 cells were seeded as with HMGB1 studies, and treated with 35 μM for different time points (5, 15, 45). Supernatants were collected and concentrated as with HMGB1 studies, and samples from the supernatants were analyzed using a 4.5 hour solid form Cytochrome C-Elisa kit (R&D Systems, USA, #DCTC0) following the manufacturer's description. Shortly thereafter, a 50% diluted sample was analyzed and the optical density was determined using a microplate reader set at 450 nm, and […]. A standard curve was generated for each set of samples assayed. Samples were run in four parallels, and the cytochrome-c released into the supernatant was expressed as a fold over the level of cytochrome-c in the supernatant of untreated cells."}, "[5]": {"system": "HL-60/ADR", "assay": "In vitro cytotoxic activity, MTS assay; resistance index", "format": "cell-based, human", "details": "HL-60/ADR vs sensitive HL-60 (doxorubicin resistance)", "experimental": "as §1, §2, §3, §4, §5, §6, §7, §8, §9, §10"}}, "note": "Non-standard residues stand in square brackets, D forms with d. Residues, ends and D or L forms follow the SMILES beside them. Dip = N[C@H](C(=O)O)C(c1ccccc1)c1ccccc1"}
{"smiles": "NCCCC[C@H](NC(=O)[C@@H](NC(=O)[C@H](Cc1c[nH]c2ccccc12)NC(=O)[C@H](CCCCN)NC(=O)[C@H](CCCCN)NC(=O)[C@H](Cc1c[nH]c2ccccc12)NC(=O)[C@H](Cc1c[nH]c2ccccc12)NC(=O)[C@H](CCCCN)NC(=O)[C@@H](N)CCCCN)C(c1ccccc1)c1ccccc1)C(N)=O", "note": "[LTX-315, K-K-W-W-K-K-W-Dip-K-NH2] (H-KKWWKKW[Dip]K-NH2)", "values": [{"measurement": "tumour growth after re-inoculation in comparison with control animals", "setting": "[1]; 9 mice previously treated with LTX-315 0.5 or 1 mg, P<0.01", "result": "inhibition (P<0.01) of tumour growth was observed"}, {"measurement": "animals with complete regression after re-inoculation", "setting": "[1]; of 9 re-inoculated mice", "result": 2, "unit": "animals"}, {"measurement": "mice in which inhibition was observed after re-inoculation", "setting": "[1]; of 9 re-inoculated mice", "result": 7, "unit": "mice"}, {"measurement": "Resistance index (RI)", "setting": "[2]; IGROV-1/CDDP vs IGROV-1 (cisplatin resistance)", "result": 0.50}, {"measurement": "IC50", "setting": "[2]; IGROV-1/CDDP, resistant", "result": 3190, "unit": "nM"}, {"measurement": "Resistance index (RI)", "setting": "[3]; MCF-7/mdr vs sensitive MCF-7 (doxorubicin resistance)", "result": 1.12}, {"measurement": "IC50", "setting": "[3]; MCF-7/mdr, resistant", "result": 1960, "unit": "nM"}, {"measurement": "cytochrome-C in the supernatant vs untreated control cells", "setting": "[4]", "result": "three times more cytochrome-C in the supernatant compared to untreated control cells"}, {"measurement": "Resistance index (RI)", "setting": "[5]", "result": 1.45}]}
